In ChEMBL document CHEMBL6078711, “Design, synthesis, and biological evaluation of steroidal indole derivatives as membrane-targeting antibacterial candidates” (Eur J Med Chem, 2025) one finds MIC, Activity and MBC data, which are given here for 29 compounds.

Experiment [1] deals with Staphylococcus aureus. Kind of experiment: Antibacterial activity against Staphylococcus aureus CGMCC1.8721 assessed as reduction in bacterial growth. It counts as functional.
For experiment [2], the system named is Staphylococcus aureus. Nature of the experiment: Antibacterial activity against methicillin-resistant Staphylococcus aureus ATCC 43300 assessed as reduction in bacterial growth. The class given is functional.
Experiment [3] deals with Staphylococcus aureus. Kind of experiment: Antibacterial activity against Staphylococcus aureus CGMCC1.8721 assessed as reduction in bacterial growth in presence of phosphatidylglycerol. The class given is functional.
The test system of experiment [4] is Staphylococcus aureus. Nature of the experiment: Antibacterial activity against methicillin-resistant Staphylococcus aureus CGMCC 1.12409 assessed as reduction in bacterial growth. It counts as functional.
Experiment [5] concerns Staphylococcus aureus. Nature of the experiment: Antibacterial activity against methicillin-resistant Staphylococcus aureus ATCC 33591 assessed as reduction in bacterial growth. The class given is functional.
Experiment [6] deals with Staphylococcus aureus. Kind of experiment: Bactericidal activity against methicillin-resistant Staphylococcus aureus ATCC 43300 assessed as reduction in bacterial growth. The class given is functional.
Experiment [7] deals with Staphylococcus aureus. Kind of experiment: Bactericidal activity against methicillin-resistant Staphylococcus aureus CGMCC 1.12409 assessed as reduction in bacterial growth. It counts as functional.
For experiment [8], the system named is Staphylococcus aureus. Kind of experiment: Bactericidal activity against methicillin-resistant Staphylococcus aureus ATCC 33591 assessed as reduction in bacterial growth. The class given is functional.
Experiment [9] concerns Staphylococcus aureus. Kind of experiment: Bactericidal activity against Staphylococcus aureus CGMCC1.8721 assessed as reduction in bacterial growth. The class given is functional.
Experiment [10] concerns Staphylococcus aureus. Nature of the experiment: Antibacterial activity against Methicillin-resistant Staphylococcus aureus CGMCC1.8721 infected in mouse skin infection model assessed as reduction in bacterial clones at 5 mg/kg, sc. The class given is functional, organism-based.
Experiment [11] deals with Staphylococcus aureus. Nature of the experiment: Antibacterial activity against Methicillin-resistant Staphylococcus aureus CGMCC1.8721 infected in mouse skin infection model assessed as reduction in bacterial load at 5 mg/kg, sc. It counts as functional. Also on record: scale not given: the % may be the effect or the level left.

≈ marks a conversion by molar mass, not a printed value. Calls of active or inactive are those of the source. The calls are words filed in the database; no cut-off is given here. A value given as a limit tells only on which side of the number the result lay.

Usually MIC stands for the lowest concentration found to suppress growth. Consider `C[C@H](Cc1c[nH]c2ccc(CN3CCC(N4CCCC4)CC3)cc12)[C@H]1CC[C@H]2[C@@H]3CC[C@@H]4C[C@H](O)CC[C@]4(C)[C@H]3CC[C@]12C`, for which the MIC in experiment [1] and in experiment [2] was 16 µg/mL (≈ 26.7 µM) each time.
`CCCCCCCCCC(=O)N[C@@H](Cc1c[nH]c2ccccc12)C(=O)N[C@@H](CC(N)=O)C(=O)N[C@@H](CC(=O)O)C(=O)N[C@@H]1C(=O)NCC(=O)N[C@@H](CCCN)C(=O)N[C@@H](CC(=O)O)C(=O)N[C@H](C)C(=O)N[C@@H](CC(=O)O)C(=O)NCC(=O)N[C@H](CO)C(=O)N[C@@H]([C@@H](C)CC(=O)O)C(=O)N[C@@H](CC(=O)c2ccccc2N)C(=O)O[C@@H]1C`: the outcome in [3] was Active.
A word on the MBC: it is the lowest tested concentration that kills the bacteria rather than only halting them. As to `CCNCc1ccc2[nH]cc([C@H]3CC[C@H]4[C@@H]5CC[C@H]6C[C@@H](O)CC[C@]6(C)[C@H]5CC[C@]34C)c2c1`, the minimal inhibitory concentration (MIC) in [4] amounted to 8 µg/mL (≈ 17.8 µM); in [5], 8 µg/mL (≈ 17.8 µM); in [1] it was 4 µg/mL (≈ 8.91 µM); in experiment [2], 4 µg/mL (≈ 8.91 µM). Further, the MBC in experiment [6] is 8 µg/mL (≈ 17.8 µM); in [7], 16 µg/mL (≈ 35.7 µM); in [8], 16 µg/mL (≈ 35.7 µM); in [9], 8 µg/mL (≈ 17.8 µM).
Consider `C[C@H](Cc1c[nH]c2ccc(CNc3ccc(C(F)(F)F)cc3)cc12)[C@H]1CC[C@H]2[C@@H]3CC[C@@H]4C[C@H](O)CC[C@]4(C)[C@H]3CC[C@]12C`, for which the MIC in experiment [4] was greater than 32 µg/mL; in experiment [1] it was 16 µg/mL (≈ 26.4 µM); in experiment [2], 32 µg/mL (≈ 52.7 µM).
Take `C[C@H](Cc1c[nH]c2ccc(CN3CCC(O)C3)cc12)[C@H]1CC[C@H]2[C@@H]3CC[C@@H]4C[C@H](O)CC[C@]4(C)[C@H]3CC[C@]12C` (some centres undefined): the values for the MIC in [1] and in experiment [2] were 8 µg/mL (≈ 15 µM) and 16 µg/mL (≈ 30 µM), respectively.
For `C[C@H](Cc1c[nH]c2ccc(CN3CCOCC3)cc12)[C@H]1CC[C@H]2[C@@H]3CC[C@@H]4C[C@H](O)CC[C@]4(C)[C@H]3CC[C@]12C`, in that order: 16 µg/mL (≈ 30 µM) and 32 µg/mL (≈ 60.1 µM).
Regarding `CCn1cc(C(=O)O)c(=O)c2cc(F)c(N3CCNCC3)cc21`, the result in experiment [3] was inactive.
Take `CN[C@H](CC(C)C)C(=O)N[C@H]1C(=O)N[C@@H](CC(N)=O)C(=O)N[C@H]2C(=O)N[C@H]3C(=O)N[C@H](C(=O)N[C@H](C(=O)O)c4cc(O)cc(O)c4-c4cc3ccc4O)[C@H](O)c3ccc(c(Cl)c3)Oc3cc2cc(c3O[C@@H]2O[C@H](CO)[C@@H](O)[C@H](O)[C@H]2O[C@H]2C[C@](C)(N)[C@H](O)[C@H](C)O2)Oc2ccc(cc2Cl)[C@H]1O` [VANCOMYCIN]: the result in experiment [10] was Active. Also, the Activity in [11] is 87%. Further, the result in experiment [3] was inactive.
For `C[C@H](Cc1c[nH]c2ccc(CN3CCNCC3)cc12)[C@H]1CC[C@H]2[C@@H]3CC[C@@H]4C[C@H](O)CC[C@]4(C)[C@H]3CC[C@]12C`, the MIC in experiment [4] is 16 µg/mL (≈ 30.1 µM); in experiment [5], 16 µg/mL (≈ 30.1 µM); in experiment [1] it was 8 µg/mL (≈ 15 µM); in experiment [2] it was 16 µg/mL (≈ 30.1 µM).
As for `C[C@H](Cc1c[nH]c2ccc(CO)cc12)[C@H]1CC[C@H]2[C@@H]3CC[C@@H]4C[C@H](O)CC[C@]4(C)[C@H]3CC[C@]12C`, the MIC in experiment [4] amounted to 32 µg/mL (≈ 69 µM); in [1], 16 µg/mL (≈ 34.5 µM); in experiment [2] it was 32 µg/mL (≈ 69 µM).
On to `CCCNCc1ccc2[nH]cc(C[C@@H](C)[C@H]3CC[C@H]4[C@@H]5CC[C@@H]6C[C@H](O)CC[C@]6(C)[C@H]5CC[C@]34C)c2c1`, for which the MIC in experiment [1] and in experiment [2] was 32 µg/mL (≈ 63.4 µM) each time.
Consider `COc1ccc2[nH]cc([C@H]3CC[C@H]4[C@@H]5CCc6cc(O)ccc6[C@H]5CC[C@]34C)c2c1`, for which the MIC in experiment [1] turned out to be 16 µg/mL (≈ 39.8 µM); in [2], 32 µg/mL (≈ 79.7 µM).
Turning to `CC1CN(Cc2ccc3[nH]cc(C[C@@H](C)[C@H]4CC[C@H]5[C@@H]6CC[C@@H]7C[C@H](O)CC[C@]7(C)[C@H]6CC[C@]45C)c3c2)CC(C)N1` (some centres undefined), the MIC in [1] was determined as 32 µg/mL (≈ 57.2 µM).
With `COc1ccc2[nH]cc(C[C@@H](C)[C@H]3CC[C@H]4[C@@H]5CC[C@@H]6C[C@H](O)CC[C@]6(C)[C@H]5CC[C@]34C)c2c1`, the MIC amounted to 32 µg/mL (≈ 69 µM) in experiment [4], 32 µg/mL (≈ 69 µM) in experiment [5], 16 µg/mL (≈ 34.5 µM) in [1] and 32 µg/mL (≈ 69 µM) in experiment [2].
For the compound `CCNCc1ccc2[nH]cc([C@H]3CC[C@H]4[C@@H]5CCc6cc(O)ccc6[C@H]5CC[C@]34C)c2c1`, the minimum inhibitory concentration (MIC) in experiment [4] was 4 µg/mL (≈ 9.33 µM); in experiment [5], 4 µg/mL (≈ 9.33 µM); in [1], 1 µg/mL (≈ 2.33 µM); in [2] it was 1 µg/mL (≈ 2.33 µM). For the same compound, the MBC in [6] was 2 µg/mL (≈ 4.67 µM); in experiment [7], 8 µg/mL (≈ 18.7 µM); in experiment [8], 8 µg/mL (≈ 18.7 µM); in [9], 2 µg/mL (≈ 4.67 µM).
Take `COc1ccc2[nH]cc([C@H]3CC[C@H]4[C@@H]5CC[C@H]6C[C@@H](O)CC[C@]6(C)[C@H]5CC[C@]34C)c2c1`: the minimum inhibitory concentration (MIC) in experiment [1] and in [2] was 16 µg/mL (≈ 37.9 µM) in each case.
`C[C@H](Cc1c[nH]c2ccccc12)[C@H]1CC[C@H]2[C@@H]3CC[C@@H]4C[C@H](O)CC[C@]4(C)[C@H]3CC[C@]12C`: the MIC in experiment [1] was greater than 32 µg/mL.
As to `COc1ccc2[nH]cc(C[C@@H](C)[C@H]3CC[C@H]4[C@@H]5[C@H](O)C[C@@H]6C[C@H](O)CC[C@]6(C)[C@H]5C[C@H](O)[C@]34C)c2c1`, the MIC was found to be 32 µg/mL (≈ 64.6 µM) in experiment [4], 32 µg/mL (≈ 64.6 µM) in experiment [5], 16 µg/mL (≈ 32.3 µM) in [1] and 32 µg/mL (≈ 64.6 µM) in experiment [2].
For the compound `COc1ccc2[nH]cc(C[C@@H](C)[C@H]3CC[C@H]4[C@@H]5[C@H](O)C[C@@H]6C[C@H](O)CC[C@]6(C)[C@H]5CC[C@]34C)c2c1`, the MIC in experiment [4] turned out to be 32 µg/mL (≈ 66.7 µM); in experiment [5], 32 µg/mL (≈ 66.7 µM); in [1], 16 µg/mL (≈ 33.4 µM); in [2], 32 µg/mL (≈ 66.7 µM).
Take `CNCc1ccc2[nH]cc(C[C@@H](C)[C@H]3CC[C@H]4[C@@H]5CC[C@@H]6C[C@H](O)CC[C@]6(C)[C@H]5CC[C@]34C)c2c1`: the MIC in [4], in experiment [5], in [1] and in experiment [2] was 2 µg/mL (≈ 4.2 µM) in each case. Also, the MBC was determined as 4 µg/mL (≈ 8.39 µM) in experiment [6], 4 µg/mL (≈ 8.39 µM) in experiment [7], 4 µg/mL (≈ 8.39 µM) in experiment [8] and 2 µg/mL (≈ 4.2 µM) in experiment [9].
As to `C[C@H](Cc1c[nH]c2ccc(CN3CCN(C)CC3)cc12)[C@H]1CC[C@H]2[C@@H]3CC[C@@H]4C[C@H](O)CC[C@]4(C)[C@H]3CC[C@]12C`, the MIC in experiment [1] came to 16 µg/mL (≈ 29.3 µM).
Take `C[C@H](Cc1c[nH]c2ccc(CNCCN3CCN(C)CC3)cc12)[C@H]1CC[C@H]2[C@@H]3CC[C@@H]4C[C@H](O)CC[C@]4(C)[C@H]3CC[C@]12C`: the minimal inhibitory concentration (MIC) in experiment [4] was 4 µg/mL (≈ 6.79 µM); in [5], 4 µg/mL (≈ 6.79 µM); in experiment [1], 2 µg/mL (≈ 3.4 µM); in experiment [2], 2 µg/mL (≈ 3.4 µM).
On to `C[C@H](Cc1c[nH]c2ccc(CN3CC(O)C3)cc12)[C@H]1CC[C@H]2[C@@H]3CC[C@@H]4C[C@H](O)CC[C@]4(C)[C@H]3CC[C@]12C`, for which the MIC in experiment [4] came out at 16 µg/mL (≈ 30.8 µM); in experiment [5] it was 16 µg/mL (≈ 30.8 µM); in experiment [1], 8 µg/mL (≈ 15.4 µM); in [2], 8 µg/mL (≈ 15.4 µM).
With `C[C@H](Cc1c[nH]c2ccc(CN3CCSCC3)cc12)[C@H]1CC[C@H]2[C@@H]3CC[C@@H]4C[C@H](O)CC[C@]4(C)[C@H]3CC[C@]12C`, the MIC in experiment [4] turned out to be 16 µg/mL (≈ 29.2 µM); in [5], 16 µg/mL (≈ 29.2 µM); in experiment [1], 8 µg/mL (≈ 14.6 µM); in [2], 16 µg/mL (≈ 29.2 µM).
Consider `CC1(C)S[C@@H]2[C@H](NC(=O)[C@H](N)c3ccccc3)C(=O)N2[C@H]1C(=O)O`, for which the outcome in experiment [3] was inactive.
In the case of `C[C@H](Cc1c[nH]c2ccc(CNCCO)cc12)[C@H]1CC[C@H]2[C@@H]3CC[C@@H]4C[C@H](O)CC[C@]4(C)[C@H]3CC[C@]12C`, the MIC in experiment [1] is 16 µg/mL (≈ 31.6 µM).
Consider `COc1ccc(NCc2ccc3[nH]cc(C[C@@H](C)[C@H]4CC[C@H]5[C@@H]6CC[C@@H]7C[C@H](O)CC[C@]7(C)[C@H]6CC[C@]45C)c3c2)cc1`, for which the MIC in experiment [1] and in experiment [2] was 16 µg/mL (≈ 28.1 µM) in each case.
Consider `C[C@H](Cc1c[nH]c2ccc(CNCCCl)cc12)[C@H]1CC[C@H]2[C@@H]3CC[C@@H]4C[C@H](O)CC[C@]4(C)[C@H]3CC[C@]12C`, for which, in experiment [1], the MIC amounted to 32 µg/mL (≈ 60.9 µM).
As for `O=C(N[C@H](CO)[C@H](O)c1ccc([N+](=O)[O-])cc1)C(Cl)Cl`, the outcome in [3] was inactive.
